{
  "source": "patent US20100323894A1",
  "about": "“HERBICIDAL COMBINATION” (Bayer CropScience AG, priority 2007, published 2010)",
  "key": {"Polygonum convolvulus": {"system": "Polygonum convolvulus", "assay": "Post-emergence action against weeds, greenhouse, visual scoring", "assay_type": "in vivo", "conditions": "scoring 11 days after application", "method": "(§1) Seeds or rhizome pieces of monocotyledonous and dicotyledonous weeds were placed in sandy loam soil in plastic pots, covered with soil and cultivated in a greenhouse under good growth conditions. Three weeks after sowing, the test plants were treated at the 2- to 4-leaf stage. The compounds according to the invention, formulated as wettable powders or as emulsion concentrates, were sprayed onto the green parts of the plants in various dosages at a water application rate of 100 to 800 l/ha (converted). After the test plants had been left to stand in the greenhouse for 10 to 28 days under optimum growth conditions, the effect of the preparations was scored visually in comparison to untreated controls.\n0%=no control 100%=complete control"}, "Galium aparine": {"system": "Galium aparine", "assay": "Post-emergence action against weeds, greenhouse, visual scoring", "assay_type": "in vivo", "conditions": "scoring 11 days after application, 0=no control, 100=complete control", "method": "as §1\n0=no control 100=complete control"}},
  "data": [
    {"compound": "CCc1cc(C)cc(CC)c1-c1c(OC(=O)C(C)(C)C)n2n(c1=O)CCOCC2", "note": "[Compound B9-1, pinoxaden]", "values": [
      {"measurement": "Polygonum convolvulus Control in %", "setting": "Polygonum convolvulus; 15 g of ai/ha, 0=no control, 100=complete control", "result": 20, "unit": "%"}
    ]},
    {"compound": "CCOC(=O)COc1cc(-c2nn(C)c(OC(F)F)c2Cl)c(F)cc1Cl", "note": "[Compound B2-1, pyraflufen-ethyl]", "values": [
      {"measurement": "Galium aparine Control in %", "setting": "Galium aparine; 2 g of ai/ha", "result": 23, "unit": "%"}
    ]},
    {"compound": "Cc1nn(C)c(O)c1C(=O)c1ccc(C(F)(F)F)cc1S(C)(=O)=O", "note": "[Compound B1-6, pyrasulfotole]", "values": [
      {"measurement": "Polygonum convolvulus Control in %", "setting": "Polygonum convolvulus; 25 g of ai/ha, 0%=no control, 100%=complete control", "result": 20, "unit": "%"}
    ]},
    {"compound": "sodium salt of 2-iodo-N-[(4-methoxy-6-methyl-1,3,5-triazin-2-yl)carbamoyl]benzenesulfonamide [Compound A-2]", "values": [
      {"measurement": "Polygonum convolvulus Control in %", "setting": "Polygonum convolvulus; 2.5 g of ai/ha, 0%=no control, 100%=complete control", "result": 10, "unit": "%"},
      {"measurement": "Galium aparine Control in %", "setting": "Galium aparine; 2.5 g of ai/ha", "result": 0, "unit": "%"}
    ]},
    {"compound": "CS(=O)(=O)c1cc(C(F)(F)F)ccc1C(=O)c1cnoc1C1CC1", "note": "[Compound B3-3, isoxaflutole]", "values": [
      {"measurement": "Polygonum convolvulus Control in %", "setting": "Polygonum convolvulus; 50 g of ai/ha, 0=no control, 100=complete control", "result": 25, "unit": "%"}
    ]},
    {"compound": "COCc1cnc(C2=NC(C)(C(C)C)C(=O)N2)c(C(=O)O)c1", "note": "(centres unmarked) [Compound B4-2, imazamox]", "values": [
      {"measurement": "Galium aparine Control in %", "setting": "Galium aparine; 10 g of ai/ha", "result": 75, "unit": "%"}
    ]},
    {"compound": "CCN(C(=O)n1nnn(-c2ccccc2Cl)c1=O)C1CCCCC1", "note": "[Compound B8-1, fentrazamide]", "values": [
      {"measurement": "Polygonum convolvulus Control in %", "setting": "Polygonum convolvulus; 250 g of ai/ha, 0%=no control, 100%=complete control", "result": 20, "unit": "%"}
    ]}
  ]
}
